Data: ChEMBL document CHEMBL1151393, “Biologically active pyrrolizidine alkaloids from the true forget-me-not, Myosotis scorpioides” (J Nat Prod, 1982)

Experiments:
Format in all cases: organism-based
Conditions in all cases: in vivo
Mus musculus [1] = assay: Toxicity in BS1 mouse assessed as death at 500 mg/kg, ip within 4 mins; design: dose 500 mg/kg, route intraperitoneal
Mus musculus [2] = assay: Toxicity in BS1 mouse assessed as lethargy at 250 mg/kg, ip; design: dose 250 mg/kg, route intraperitoneal
Mus musculus [3] = assay: Toxicity in BS1 mouse assessed as ataxia at 250 mg/kg, ip; design: dose 250 mg/kg, route intraperitoneal
Mus musculus [4] = assay: Toxicity in BS1 mouse assessed as occurrence of liver lesions at 250 mg/kg, ip; design: dose 250 mg/kg, route intraperitoneal
Mus musculus [5] = assay: Toxicity in BS1 mouse assessed as lethargy, ataxia, gasping and clonic convulsion at 500 mg/kg, ip within 4 mins; design: dose 500 mg/kg, route intraperitoneal
Mus musculus [6] = assay: Toxicity in BS1 mouse at 63 mg/kg, ip; design: dose 63 mg/kg, route intraperitoneal
Mus musculus [7] = assay: Toxicity in BS1 mouse at 125 mg/kg, ip; design: dose 125 mg/kg, route intraperitoneal

SMILES	Activity (Mus musculus [1])	Activity (Mus musculus [2])	Activity (Mus musculus [3])	Activity (Mus musculus [4])	Activity (Mus musculus [5])	Activity (Mus musculus [6])	Activity (Mus musculus [7])
C/C=C(\C)C(=O)O[C@@H](C)[C@](O)(C(=O)OCC1=CCN2CC[C@@H](OC(C)=O)[C@@H]12)C(C)C	Toxic	Toxic	Toxic	Non-toxic	Toxic	Non-toxic	Non-toxic
C/C=C(\C)C(=O)O[C@@H](C)[C@](O)(C(=O)OCC1=CCN2CC[C@@H](O)[C@@H]12)C(C)C [SCORPIOIDINE]	Toxic	Toxic	Toxic	Non-toxic	Toxic	Non-toxic	Non-toxic
